# From patent US20160206606A1, “TOPICAL COMPOSITIONS COMPRISING A THIAZOLIDINEDIONE” (Topokine Therapeutics, Inc., priority 2014, published 2016)
# Where a name gives a salt, the structure may show the parent alone. Read-outs that look alike come from different tables or passages of the source.
# What was measured:
# [1] = cited from earlier work; for solubility in ethanol: background statement, temperature not stated
# [2] = Solubility by serial addition of solvent to a known mass of the TZD until full dissolution; assay type: physicochemical
# Procedure: The solubility of rosiglitazone maleate and pioglitazone hydrochloride in various solvents was tested by a standard method, i.e., serial addition of solvent to a known mass of the TZD compound, until full dissolution was observed. Additional solubility results were obtained from the literature. […] This phenomenon occurred in formulations comprising water, as well as formulations lacking water. […] Next, the solubility of troglitazone in various solvents was tested by a standard method, i.e., serial addition of solvent to a known mass of troglitazone, until full dissolution was observed. Additional solubility results were obtained from the literature.
# [3] = solvent: 70% ethanol, 27% PG, 3% oleic acid
# [4] = solvent: 70% ethanol, 30% propylene glycol (PG)
Compound,Solubility at 25° C. ([1]; solvent: Ethanol),Solubility at 25° C. ([1]; solvent: Water),"Solubility at 25° C. [2, 3]","Solubility at 25° C. [2, 4]",solubility in ethanol [1],increase of solubility in the vehicle on addition of oleic acid ([2]; about 3% w/w oleic acid added to ethanol-based vehicle),increase of solubility in the vehicle on addition of oleic acid ([2]; about 3% w/w oleic acid added to isopropanol-based vehicle),"Solubility at 25° C. ([2]; solvent: 63% ethanol, 24% PG, 10% water, 3% oleic acid)","Solubility at 25° C. ([2]; solvent: 70% isopropyl alcohol, 27% PG, 3% oleic acid)","Solubility at 25° C. ([2]; solvent: 70% isopropyl alcohol, 30% PG)","Solubility at 25° C. ([2]; solvent: 65% ethanol, 25% PG, 7% water, 3% oleic acid)"
Cc1c(C)c2c(c(C)c1O)CCC(C)(COc1ccc(CC3SC(=O)NC3=O)cc1)O2 (stereo not drawn) [troglitazone],0.3 mg/mL^b,0.02 mg/mL^a,0.6 mg/g,0.3 mg/g,,,,,,,
CN(CCOc1ccc(CC2SC(=O)NC2=O)cc1)c1ccccn1 (stereo not drawn) [rosiglitazone maleate],0.25 mg/mL,,~10 mg/g,0.13 mg/g,about 0.25 mg/mL,over 75 fold,about 3 fold,~10 mg/g,1.2 mg/g,0.4 mg/g,
CCc1ccc(CCOc2ccc(CC3SC(=O)NC3=O)cc2)nc1 (stereo not drawn) [pioglitazone hydrochloride],4 mg/mL,0.05 mg/mL,~9 mg/g,,~4000 µg/mL,,,,,,~9 mg/g
